Earlier results in US20250082651A1, “GANAXOLONE FOR USE IN TREATING GENETIC EPILEPTIC DISORDERS” (Marinus Pharmaceuticals, Inc., priority 2017, published 2025).

Experiments:
[1] = human plasma; cited from earlier work
[2] = tested on: patients with CDKL5-related epilepsy; conditions: CDKL5 deficiency disorder patients; cited from earlier work

Row | Compound | Half-life [1] | Responder rate at 12 months [2]
1 | CC(=O)[C@H]1CC[C@H]2[C@@H]3CC[C@H]4C[C@H](O)CC[C@]4(C)[C@H]3CC[C@]12C [Allopregnanolone, 3α,5α-tetrahydroprogesterone, reference compound] | about 45 minutes | –
2 | CCCC(CCC)C(=O)O [valproic acid] | – | 9%
